Test results reported in publication PMC6407917, “Identification of GSK3186899/DDD853651 as a Preclinical Development Candidate for the Treatment of Visceral Leishmaniasis” (Journal of Medicinal Chemistry, 2018).

Columns and labels:
Experiment in all cases: biochemical
Set-up in all cases: species or system HEK293/K-562/placenta mixed human extract; Kinobeads chemoproteomic competition binding, quantified by TMT LC-MS/MS, dose response up to 20 uM
PRKCQ = PRKCQ (Homo sapiens, UniProt Q04759)
MAP3K7 = MAP3K7 (Homo sapiens, UniProt O43318)
Sequence of MAP3K7 (O43318 whole entry): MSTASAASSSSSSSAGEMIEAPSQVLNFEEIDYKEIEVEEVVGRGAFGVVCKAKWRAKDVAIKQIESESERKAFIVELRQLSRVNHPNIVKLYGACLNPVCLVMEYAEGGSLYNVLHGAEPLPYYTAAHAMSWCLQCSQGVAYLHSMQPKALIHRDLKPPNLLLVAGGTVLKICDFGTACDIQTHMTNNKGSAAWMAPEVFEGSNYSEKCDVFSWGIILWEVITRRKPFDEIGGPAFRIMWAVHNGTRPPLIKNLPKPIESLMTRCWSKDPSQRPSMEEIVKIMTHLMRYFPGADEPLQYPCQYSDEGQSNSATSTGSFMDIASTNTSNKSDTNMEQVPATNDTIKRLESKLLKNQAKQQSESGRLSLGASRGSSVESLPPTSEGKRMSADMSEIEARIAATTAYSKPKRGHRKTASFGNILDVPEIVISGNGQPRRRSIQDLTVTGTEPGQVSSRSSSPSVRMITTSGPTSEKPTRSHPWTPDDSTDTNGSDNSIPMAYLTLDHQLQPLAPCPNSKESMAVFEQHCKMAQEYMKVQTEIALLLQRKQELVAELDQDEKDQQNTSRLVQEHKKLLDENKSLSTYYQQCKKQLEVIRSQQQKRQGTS

MAP3K11 = MAP3K11 (Homo sapiens, UniProt Q16584)
MAPK9 = MAPK9 (Homo sapiens, UniProt P45984)
Sequence of MAPK9 (P45984 whole entry): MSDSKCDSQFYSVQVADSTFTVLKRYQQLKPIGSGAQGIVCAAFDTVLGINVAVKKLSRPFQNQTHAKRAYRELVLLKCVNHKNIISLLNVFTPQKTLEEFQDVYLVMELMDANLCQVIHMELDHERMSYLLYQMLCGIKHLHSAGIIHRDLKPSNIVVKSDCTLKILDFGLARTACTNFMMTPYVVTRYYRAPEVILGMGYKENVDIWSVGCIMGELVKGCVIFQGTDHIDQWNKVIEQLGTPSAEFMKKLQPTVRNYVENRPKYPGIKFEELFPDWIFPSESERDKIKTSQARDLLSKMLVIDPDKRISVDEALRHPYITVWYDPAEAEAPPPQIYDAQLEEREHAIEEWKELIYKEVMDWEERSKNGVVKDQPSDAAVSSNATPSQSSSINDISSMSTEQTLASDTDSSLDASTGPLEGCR

MARK2 = MARK2 (Homo sapiens, UniProt Q7KZI7)
ABL2 = ABL2 (Homo sapiens, UniProt P42684)
MAPK3 = MAPK3 (Homo sapiens, UniProt P27361)
EPHA3 = EPHA3 (Homo sapiens, UniProt P29320)
Sequence of EPHA3 (P29320 whole entry): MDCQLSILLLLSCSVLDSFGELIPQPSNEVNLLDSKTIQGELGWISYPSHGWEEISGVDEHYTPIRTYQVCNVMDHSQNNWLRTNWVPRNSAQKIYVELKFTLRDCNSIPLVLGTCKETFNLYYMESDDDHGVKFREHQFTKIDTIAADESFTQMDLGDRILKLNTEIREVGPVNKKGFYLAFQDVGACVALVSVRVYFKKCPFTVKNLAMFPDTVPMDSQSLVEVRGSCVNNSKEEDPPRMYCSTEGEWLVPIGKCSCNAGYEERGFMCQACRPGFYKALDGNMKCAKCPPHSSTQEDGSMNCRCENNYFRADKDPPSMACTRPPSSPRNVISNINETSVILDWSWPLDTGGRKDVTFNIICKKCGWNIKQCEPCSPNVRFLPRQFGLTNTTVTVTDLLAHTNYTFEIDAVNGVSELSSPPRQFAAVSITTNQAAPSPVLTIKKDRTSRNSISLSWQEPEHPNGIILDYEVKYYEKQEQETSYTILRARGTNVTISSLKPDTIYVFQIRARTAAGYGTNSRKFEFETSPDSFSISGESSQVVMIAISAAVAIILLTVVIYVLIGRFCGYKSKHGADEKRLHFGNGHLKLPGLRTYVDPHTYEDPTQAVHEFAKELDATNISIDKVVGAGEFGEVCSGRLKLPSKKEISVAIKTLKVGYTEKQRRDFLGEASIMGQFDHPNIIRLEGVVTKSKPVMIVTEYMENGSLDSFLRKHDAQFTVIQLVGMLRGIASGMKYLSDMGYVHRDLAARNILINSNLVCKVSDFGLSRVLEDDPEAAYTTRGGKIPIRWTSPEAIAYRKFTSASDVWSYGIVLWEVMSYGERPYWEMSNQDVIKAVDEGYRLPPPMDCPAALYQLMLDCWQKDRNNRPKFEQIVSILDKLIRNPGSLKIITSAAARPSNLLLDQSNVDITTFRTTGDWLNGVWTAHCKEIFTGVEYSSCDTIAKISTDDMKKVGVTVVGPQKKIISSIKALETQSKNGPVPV

CIT = CIT (Homo sapiens, UniProt O14578)
RIPK4 = RIPK4 (Homo sapiens, UniProt P57078)
STK3 = STK3 (Homo sapiens, UniProt Q13188)
STK35 = STK35 (Homo sapiens, UniProt Q8TDR2)
IRAK3 = IRAK3 (Homo sapiens, UniProt Q9Y616)
YWHAG = YWHAG (Homo sapiens, UniProt P61981)
Sequence of YWHAG (P61981 whole entry): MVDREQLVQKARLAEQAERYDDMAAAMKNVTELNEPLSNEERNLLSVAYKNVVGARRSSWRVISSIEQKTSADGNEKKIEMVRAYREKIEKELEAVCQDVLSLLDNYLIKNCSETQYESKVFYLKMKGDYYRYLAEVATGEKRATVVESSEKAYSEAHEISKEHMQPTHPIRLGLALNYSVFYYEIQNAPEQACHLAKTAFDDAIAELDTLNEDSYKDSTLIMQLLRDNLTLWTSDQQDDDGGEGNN

MAP4K1 = MAP4K1 (Homo sapiens, UniProt Q92918)
Sequence of MAP4K1 (Q92918 whole entry): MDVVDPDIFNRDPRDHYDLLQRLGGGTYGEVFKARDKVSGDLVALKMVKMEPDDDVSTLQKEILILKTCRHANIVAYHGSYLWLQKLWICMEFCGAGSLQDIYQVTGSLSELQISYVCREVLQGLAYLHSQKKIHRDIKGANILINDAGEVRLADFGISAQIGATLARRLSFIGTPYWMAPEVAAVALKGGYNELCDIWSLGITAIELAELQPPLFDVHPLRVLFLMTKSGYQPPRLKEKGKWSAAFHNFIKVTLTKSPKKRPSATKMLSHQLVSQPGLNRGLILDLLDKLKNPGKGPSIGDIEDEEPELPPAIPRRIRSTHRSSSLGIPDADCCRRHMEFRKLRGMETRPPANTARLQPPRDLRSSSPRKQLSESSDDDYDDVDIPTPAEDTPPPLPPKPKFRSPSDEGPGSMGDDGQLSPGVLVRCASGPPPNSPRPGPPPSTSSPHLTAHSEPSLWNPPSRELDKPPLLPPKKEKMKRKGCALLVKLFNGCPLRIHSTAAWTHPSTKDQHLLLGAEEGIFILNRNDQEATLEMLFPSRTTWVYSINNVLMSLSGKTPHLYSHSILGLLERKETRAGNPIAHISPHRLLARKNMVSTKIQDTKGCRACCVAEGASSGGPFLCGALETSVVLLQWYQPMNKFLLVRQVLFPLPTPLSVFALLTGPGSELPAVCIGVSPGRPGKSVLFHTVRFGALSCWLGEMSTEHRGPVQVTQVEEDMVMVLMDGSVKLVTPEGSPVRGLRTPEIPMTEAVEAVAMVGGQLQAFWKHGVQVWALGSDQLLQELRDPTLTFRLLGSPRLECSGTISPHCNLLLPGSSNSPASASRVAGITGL

SGK3 = SGK3 (Homo sapiens, UniProt Q96BR1)
EPHA1 = EPHA1 (Homo sapiens, UniProt P21709)
Sequence of EPHA1 (P21709 whole entry): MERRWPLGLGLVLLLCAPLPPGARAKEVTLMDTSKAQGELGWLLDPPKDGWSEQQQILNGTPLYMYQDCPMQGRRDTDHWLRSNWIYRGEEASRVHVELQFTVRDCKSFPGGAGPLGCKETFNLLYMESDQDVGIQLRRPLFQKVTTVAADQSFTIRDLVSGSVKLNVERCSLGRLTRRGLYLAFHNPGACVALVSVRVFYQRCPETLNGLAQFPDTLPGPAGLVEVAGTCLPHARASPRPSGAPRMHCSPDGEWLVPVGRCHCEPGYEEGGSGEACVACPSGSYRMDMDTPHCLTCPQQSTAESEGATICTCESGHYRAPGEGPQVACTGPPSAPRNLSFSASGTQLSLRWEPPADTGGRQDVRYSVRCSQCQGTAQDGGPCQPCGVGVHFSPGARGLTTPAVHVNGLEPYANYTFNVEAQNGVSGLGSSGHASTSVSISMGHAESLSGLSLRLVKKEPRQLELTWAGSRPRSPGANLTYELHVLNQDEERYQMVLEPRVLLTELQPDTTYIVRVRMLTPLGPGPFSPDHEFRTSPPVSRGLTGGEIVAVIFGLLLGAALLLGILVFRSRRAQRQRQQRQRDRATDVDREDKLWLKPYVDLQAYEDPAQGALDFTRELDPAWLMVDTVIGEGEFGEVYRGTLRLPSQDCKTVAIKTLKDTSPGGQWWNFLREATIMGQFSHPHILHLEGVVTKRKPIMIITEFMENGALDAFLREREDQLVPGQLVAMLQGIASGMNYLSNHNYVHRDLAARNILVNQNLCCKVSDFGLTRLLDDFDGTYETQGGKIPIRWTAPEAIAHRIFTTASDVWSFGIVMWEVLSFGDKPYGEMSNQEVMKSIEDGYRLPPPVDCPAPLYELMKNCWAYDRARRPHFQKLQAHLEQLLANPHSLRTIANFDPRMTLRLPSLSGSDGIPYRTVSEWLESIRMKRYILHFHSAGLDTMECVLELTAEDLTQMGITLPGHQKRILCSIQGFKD

DAPK1 = DAPK1 (Homo sapiens, UniProt P53355)
BRAF = BRAF (Homo sapiens, UniProt P15056)
ACVR1 = ACVR1 (Homo sapiens, UniProt Q04771)
MINK1 = MINK1 (Homo sapiens, UniProt Q8N4C8)

Measured: IC50

Sequence of PRKCQ (Q04759 whole entry): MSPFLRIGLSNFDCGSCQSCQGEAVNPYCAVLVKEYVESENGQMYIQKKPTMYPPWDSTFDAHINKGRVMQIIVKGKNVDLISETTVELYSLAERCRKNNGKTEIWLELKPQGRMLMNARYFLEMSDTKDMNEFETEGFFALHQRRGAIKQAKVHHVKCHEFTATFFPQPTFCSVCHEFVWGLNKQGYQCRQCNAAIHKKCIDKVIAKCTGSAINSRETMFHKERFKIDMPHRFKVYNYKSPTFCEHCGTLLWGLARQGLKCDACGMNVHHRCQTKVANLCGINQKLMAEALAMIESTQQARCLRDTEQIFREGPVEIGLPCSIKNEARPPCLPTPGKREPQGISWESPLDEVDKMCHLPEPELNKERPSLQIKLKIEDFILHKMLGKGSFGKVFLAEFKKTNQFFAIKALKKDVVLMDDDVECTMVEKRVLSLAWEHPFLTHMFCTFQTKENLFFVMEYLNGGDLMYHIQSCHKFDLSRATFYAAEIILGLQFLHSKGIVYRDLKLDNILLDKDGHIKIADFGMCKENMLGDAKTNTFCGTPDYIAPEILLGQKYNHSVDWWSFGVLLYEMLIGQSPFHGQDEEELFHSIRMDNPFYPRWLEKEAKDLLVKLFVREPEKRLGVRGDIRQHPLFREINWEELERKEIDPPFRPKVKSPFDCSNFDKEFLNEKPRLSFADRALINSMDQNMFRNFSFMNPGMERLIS

COc1nc(N[C@H]2CC[C@H](NS(=O)(=O)CC(C)C)CC2)nc2[nH]nc(N3CCOC[C@H]3C)c12 [compound 39, N-(trans-4-((4-Methoxy-3-((R)-3-methylmorpholino)-1H-pyrazolo[3,4-d]pyrimidin-6-yl)amino)cyclohexyl)-2-methylpropane-1-sulfonamide]
≥ 20 µM: all assays above
